Data taken from patent US20190008149A1, “HERBICIDAL COMPOSITIONS CONTAINING 4-AMINO-3-CHLORO-6-(4-CHLORO-2-FLUORO-3-METHOXYPHENYL) PYRIDINE-2-CARBOXYLIC ACID OR A DERIVATIVE THEREOF AND A CELL MEMBRANE DISRUPTOR HERBICIDE OR A DERIVATIVE THEREOF” (Dow AgroSciences LLC, priority 2015, published 2019).
Values joined by “and” are separate entries in the source; they are usually repeats but may differ in a detail not shown here. Equal entries are not always repeated.

Test system: ERISS=Conyza species (fleabane, ERISS)
Experiment: Field trial, post-emergence foliar application, percent weed control visually rated
Type: in vivo
Source text: Treatments consisted of the methyl ester of 4-amino-3-chloro-6-(4-chloro-2-fluoro-3-methoxyphenyl)pyridine-2-carboxylic acid (Cmpd 1) tankmixed with saflufenacil or paraquat. The form of compound of formula (I) was applied on an acid equivalent basis, and saflufenacil and paraquat were applied on an active ingredient basis. Saflufenacil was applied as a commercial formulation containing 700 grams per kilogram (g/kg). Paraquat was applied as a commercial formulation containing 200 g/L.
Field trials were conducted under standard field conditions. Plot sizes varied from 2 meters (m) wide by 5 m long. Treatments were applied with small plot backpack sprayers, using pressurized carbon dioxide (CO2) as propellant. Pressure varied from 40-45 pounds per square inch (PSI), with spray tips typically of a Flat Fan type applying water diluent at 100 liters per hectare (L/ha). Boom size was 2 m in width. Weed sizes varied, but all treatments were applied as post-emergence treatments to weeds from 2 leaf to 2 tiller growth stages varying from 2-15 inches in height. No additional adjuvant was mixed with the treatments applied in the field.
Results in Tables 1 to 2 are field trial results for foliar applied compositions. The values reported are percent (%) control visually rated. The predicted percent (%) weed contol was determined using Colby's equation.
ERISS=Conyza species (fleabane, ERISS) g ae/ha=grams acid equivalent per hectare g ai/ha=grams active ingredient per hectare Mean % weed control=observed value of percent (%) control rated visually Predicted mean % weed control=expected value of percent (%) control as calculated by Colby's equation Cmpd 1=methyl 4-amino-3-chloro-6-(4-chloro-2-fluoro-3-methoxyphenyl)pyridine-2-carboxylate, halauxifen-methyl, or ARYLEX® DAA=days after application

Row | SMILES | Mean % weed control (Cmpd 1 alone, 5 g ae/ha, 17DAA) [%] | Mean % weed control (Cmpd 1 alone, 5 g ae/ha, 28DAA) | Mean % weed control (Cmpd 1 alone, 5 g ae/ha, 43DAA) | Mean % weed control (Saflufenacil alone, 49 g ai/ha, 17DAA) [%] | Mean % weed control (Saflufenacil alone, 49 g ai/ha, 28DAA) [%]
1 | COC(=O)c1nc(-c2ccc(Cl)c(OC)c2F)cc(N)c1Cl [Cmpd 1, methyl 4-amino-3-chloro-6-(4-chloro-2-fluoro-3-methoxyphenyl)pyridine-2-carboxylate] | 33.75 | 33.75% and 46.25% | 40% and 57.5% | – | –
2 | CC(C)N(C)S(=O)(=O)NC(=O)c1cc(-n2c(=O)cc(C(F)(F)F)n(C)c2=O)c(F)cc1Cl [Saflufenacil, 2-chloro-5-[3,6-dihydro-3-methyl-2,6-dioxo-4-(trifluoromethyl)-1(2H)-pyrimidinyl]-4-fluoro-N-[[methyl(1-methylethyl)amino]sulfonyl]benzamide, reference compound] | – | – | – | 66.25 | 66.25
